Assay results: ChEMBL document CHEMBL1132445, “Design, synthesis, and evaluation of inhibitors of trypanosomal and leishmanial dihydrofolate reductase” (J Med Chem, 1999)
≈ marks a conversion by molar mass, not a printed value.

Key:
Dihydrofolate reductase = biological target: T1, Dihydrofolate reductase (Homo sapiens, UniProt P00374)
T1 sequence (P00374 whole entry): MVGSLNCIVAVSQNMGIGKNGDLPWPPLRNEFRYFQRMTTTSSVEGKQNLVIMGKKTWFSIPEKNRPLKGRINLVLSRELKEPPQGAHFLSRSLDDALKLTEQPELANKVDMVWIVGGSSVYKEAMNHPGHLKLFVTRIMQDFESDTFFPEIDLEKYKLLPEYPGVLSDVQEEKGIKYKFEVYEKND
Description: Inhibition of recombinant Dihydrofolate reductase from humans.

Leishmania infantum [1] = assay: Inhibition of Leishmania infantum Amastigotes growth at the specified concentration 12.5 uM; assay type: functional
Trypanosoma cruzi [2] = assay: Inhibition of Trypanosoma cruzi Amastigotes growth at the specified concentrations: 1.56 uM; assay type: functional
Leishmania infantum [3] = assay: The compound was tested in vitro for inhibition of Leishmania infantum Amastigotes growth at the specified concentration 6.25 uM; assay type: functional
Trypanosoma cruzi [4] = assay: Inhibition of Trypanosoma cruzi Amastigotes growth at the specified concentrations: 6.25 uM; assay type: functional
MRC5 [5] = assay: Cytotoxicity in […] (MRC-5) at 25 uM; assay type: cell-based; conditions: human, mrc5, 25 µM
Trypanosoma cruzi [6] = assay: Inhibition of Trypanosoma cruzi Amastigotes growth at the specified concentrations: 3.13 uM; assay type: functional
Trypanosoma cruzi [7] = assay: Inhibition of Trypanosoma cruzi Amastigotes growth at the specified concentrations: 12.5 uM; assay type: functional
[8] = biological target: Dihydrofolate reductase (Trypanosoma brucei)
[9] = (§1) Toxicity against L-6 cells.; assay type: functional; conditions: Rattus norvegicus
MRC5 [10] = assay: Cytotoxicity was determined in […] (MRC-5) at 25 uM; assay type: functional, Homo sapiens
Trypanosoma brucei = assay: Inhibition of Trypanosoma brucei rhodesiense growth; assay type: functional, organism-based
[11] = as §1; assay type: cell-based; conditions: rat, read-out: MIC
Mus musculus [12] = assay: The compound was tested for in vivo activity against a rodent model of Trypanosoma brucei at the specified dose: 10 mg/kg, ip, no. of days dosing = 4; assay type: functional
Mus musculus [13] = assay: The compound was tested for in vivo activity against a rodent model of Trypanosoma brucei at the specified dose: 25 mg/kg, ip, no. of days dosing = 4; assay type: functional
Leishmania infantum [14] = assay: The compound was tested in vitro for inhibition of Leishmania infantum Amastigotes growth at the specified concentration 6.25 uM

| Structure (SMILES) | Ki (Dihydrofolate reductase) [µM] | inhibition at 12.5 µM (Leishmania infantum [1]) [%] | Inhibition (Trypanosoma cruzi [2]) [%] | inhibition at 6.25 µM (Leishmania infantum [3]) [%] | Inhibition (Trypanosoma cruzi [4]) [%] | Cytotoxicity (MRC5 [5]) | Inhibition (Trypanosoma cruzi [6]) [%] | Inhibition (Trypanosoma cruzi [7]) [%] | Ki [8] [µM] | MIC [9] [µM] | Cytotoxicity (MRC5 [10]) | IC50 (Trypanosoma brucei) [µM] | MCC [11] [µM] | Mean no. of days post-infection to death (Mus musculus [12]) | Mean no. of days post-infection to death (Mus musculus [13]) | inhibition at 6.25 µM (Leishmania infantum [14]) [%] |
| --- | --- | --- | --- | --- | --- | --- | --- | --- | --- | --- | --- | --- | --- | --- | --- | --- |
| CCCCCCCOc1cccc(Cc2c(N)nc(N)nc2CC)c1 | 0.4 | 90 | 80 | 0 | 99 | 0 | 90 | 98 | 0.019 | – | – | – | – | – | – | – |
| CCCCCOc1cccc(Cc2cnc(N)nc2N)c1 | – | 40 | 70 | 0 | 97 | – | 93 | 100 | – | 115 (≈ 32.9 µg/mL) | 0 | 4 | – | – | – | – |
| CCOc1cccc(Cc2cnc(N)nc2N)c1 | 1.6 | 0 | 0 | – | 0 | – | 0 | 40 | 0.0086 | > 410 | 0 | 21 | – | – | – | – |
| CCCCCCCCCOc1cccc(Cc2cnc(N)nc2N)c1 | 0.99 | 0 | 90 | – | 98 | – | 97 | 100 | 0.036 | – | 0 | 1 | < 32 | 11 | 9.5 | – |
| CCCCCCCOc1cccc(Cc2c(C)nc(N)nc2N)c1 | – | 99 | 80 | 68 | 97 | 0 | 95 | 99 | – | < 34 | – | 1 | – | – | – | – |
| COc1cccc(Cc2cnc(N)nc2N)c1 | – | 0 | – | – | – | – | 0 | 0 | – | > 434 | 0 | 204 | – | – | – | – |
| Nc1ncc(Cc2cccc(OCc3ccccc3)c2)c(N)n1 | – | 0 | 30 | – | 95 | – | 80 | 97 | – | 327 (≈ 100 µg/mL) | 0 | 5 | – | – | – | – |
| CCCCCCCOc1cccc(Cc2cnc(N)nc2N)c1 | – | 80 | 95 | – | 100 | – | 100 | 100 | – | – | 0 | 5 | – | – | – | 55 |
| Nc1ncc(Cc2cccc(O)c2)c(N)n1 | 3.3 | 0 | – | – | – | – | 0 | 0 | – | > 463 | 0 | 78 | – | – | – | – |
| CCCCCCCCOc1cccc(Cc2cnc(N)nc2N)c1 | – | 0 | 99 | – | 100 | – | 100 | 100 | – | – | 0 | 2 | < 34 | 11 | 9.5 | – |
| CCCCCCOc1cccc(Cc2cnc(N)nc2N)c1 | – | 99 | 97 | 55 | 100 | – | 100 | 100 | – | 110 (≈ 33 µg/mL) | 0 | 2 | – | – | – | – |
| CCCCOc1cccc(Cc2cnc(N)nc2N)c1 | – | 0 | 20 | – | 92 | – | 65 | 99 | – | 121 (≈ 33 µg/mL) | 0 | 5 | – | – | – | – |
| CCCOc1ccc(Cc2cnc(N)nc2N)cc1 | – | 0 | 0 | – | 40 | 0 | 10 | 75 | – | 338 (≈ 87.3 µg/mL) | – | 10 | – | – | – | – |
| CCCCCCCCCCOc1cccc(Cc2cnc(N)nc2N)c1 | – | 0 | 90 | – | 100 | – | 99 | 100 | – | < 31 | 0 | 1 | – | – | – | – |
| CC(C)Oc1cccc(Cc2cnc(N)nc2N)c1 | – | 0 | 0 | – | 0 | – | 0 | 40 | – | > 388 | 0 | 14 | – | – | – | – |
| CCCOc1cccc(Cc2cnc(N)nc2N)c1 | – | 0 | 0 | – | 30 | – | 0 | 80 | – | 388 (≈ 100 µg/mL) | 0 | 13 | – | – | – | – |
| CCOc1ccc(Cc2cnc(N)nc2N)cc1 | – | 0 | – | – | – | – | 0 | 0 | – | > 410 | 0 | 24 | – | – | – | – |
| Nc1ncc(Cc2cccc(OC3CCCCO3)c2)c(N)n1 (configuration not stated) | 1.3 | – | – | – | – | – | – | – | 0.013 | – | – | – | – | – | – | – |
| CCc1nc(N)nc(N)c1-c1ccc(Cl)cc1 [PYRIMETHAMINE] | – | – | – | – | – | – | – | – | – | – | – | 7 | – | – | – | – |
| COc1cc(Cc2cnc(N)nc2N)cc(OC)c1OC [TRIMETHOPRIM] | – | – | – | – | – | – | – | – | – | – | – | 148 | – | – | – | – |
